Results on 20 molecules are retold here after patent publication US20260325533A1, “CDK INHIBITOR COMPOUNDS” (ALEKSIA THERAPEUTICS, INC., priority 2023, published 2026).

Like-named read-outs stand apart in the source and are kept apart here.

What all share (format): biochemical
In experiment [1] the target is CDK2/CCNE1 (Homo sapiens, UniProt P24941). Briefly: CDK2 homogeneous time-resolved fluorescence (HTRF) kinase assay. Conditions: CDK2/CCNE. In outline: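 An HTRF format measures CDK2/CCNE1 (3 nM) phosphorylating a 4E-BP1 Thr37/46 peptide at high (1 mM) ATP. Reactions run one hour at 23 °C, then EDTA-quenched and probed with Eu-labelled phospho-specific antibody.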

Experiment [2] deals with CDK1/CCNB1 (Homo sapiens, UniProt P06493). Briefly: CDK1 homogeneous time-resolved fluorescence (HTRF) kinase assay. Conditions: CDK1/CCNB. A digest of the protocol: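 Compounds, titrated 11 points in half-log steps typically from 10 μM, were incubated with enzyme for 20 min before ATP (1 mM) and ULight-labelled eIF4E-binding protein 1 peptide (50 nM) started a 60-min reaction at 23 °C. Phosphopeptide was detected by europium-antibody TR-FRET and IC50 values were derived.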
Chain of CDK1/CCNB1 (P06493 whole entry): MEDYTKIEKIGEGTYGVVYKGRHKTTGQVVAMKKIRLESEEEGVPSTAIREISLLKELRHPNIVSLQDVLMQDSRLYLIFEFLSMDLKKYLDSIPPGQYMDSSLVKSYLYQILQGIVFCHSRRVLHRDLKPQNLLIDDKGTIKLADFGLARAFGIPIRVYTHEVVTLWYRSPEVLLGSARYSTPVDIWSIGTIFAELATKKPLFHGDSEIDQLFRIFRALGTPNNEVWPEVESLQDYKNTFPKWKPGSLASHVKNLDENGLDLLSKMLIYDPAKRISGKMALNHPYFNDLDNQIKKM
Chain of CDK1/CCNB1 (P14635 whole entry partner): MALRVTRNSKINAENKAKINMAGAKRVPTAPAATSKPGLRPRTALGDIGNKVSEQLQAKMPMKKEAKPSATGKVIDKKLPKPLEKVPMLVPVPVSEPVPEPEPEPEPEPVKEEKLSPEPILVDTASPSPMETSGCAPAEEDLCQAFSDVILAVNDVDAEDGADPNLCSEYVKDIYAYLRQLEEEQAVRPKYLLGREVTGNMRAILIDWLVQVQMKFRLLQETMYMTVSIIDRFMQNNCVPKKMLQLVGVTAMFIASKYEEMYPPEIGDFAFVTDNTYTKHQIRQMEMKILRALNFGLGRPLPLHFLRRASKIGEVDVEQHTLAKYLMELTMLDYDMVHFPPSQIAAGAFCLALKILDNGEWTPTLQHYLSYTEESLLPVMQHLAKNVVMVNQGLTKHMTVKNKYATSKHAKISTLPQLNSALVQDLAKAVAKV
(In general: Time-resolved FRET reads energy transfer from a long-lived donor to a nearby acceptor.)

Experiment [3] concerns the target CDK4/CCND3 (Homo sapiens, UniProt P11802). Briefly: CDK4 homogeneous time-resolved fluorescence (HTRF) kinase assay. The following applies: CDK4/CCND. A digest of the protocol: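 TR-FRET read (665 nm, or 665/615 ratio) of 4E-BP1 Thr37/46 phosphorylation by 1.5 nM CDK4/CCND3 at 1 mM ATP, 50 nM ULight peptide, 1% DMSO. Reaction ran 60 min at 23 °C after 20 min compound–enzyme preincubation. IC50 from 11-point half-log dilutions, top 10 μM.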

The target of experiment [4] is CDK6/CCND1 (Homo sapiens, UniProt Q00534). Briefly: CDK6 homogeneous time-resolved fluorescence (HTRF) kinase assay. The following applies: CDK6/CCND. In outline: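 Assay conditions: HEPES buffer containing 10 mM MgCl2, 1 mM EGTA, 2 mM DTT, 0.01% Tween 20; 1 nM CDK6/CCND1, 50 nM peptide substrate, 1 mM ATP. Detection after 60 min reaction used 2 nM europium antibody with 340 nm excitation. Potency fitted from half-log series, 11 points.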
Chain of CDK6/CCND1 (Q00534 whole entry): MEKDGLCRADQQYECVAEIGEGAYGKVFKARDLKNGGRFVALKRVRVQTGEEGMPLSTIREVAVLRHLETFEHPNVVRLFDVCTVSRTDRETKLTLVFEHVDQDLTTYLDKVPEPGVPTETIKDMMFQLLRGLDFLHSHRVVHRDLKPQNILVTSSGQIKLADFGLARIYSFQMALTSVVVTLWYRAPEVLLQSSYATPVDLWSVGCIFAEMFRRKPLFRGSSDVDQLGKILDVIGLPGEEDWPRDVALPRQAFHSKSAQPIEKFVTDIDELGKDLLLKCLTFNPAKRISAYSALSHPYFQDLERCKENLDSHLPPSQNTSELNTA
Chain of CDK6/CCND1 (P24385 whole entry partner): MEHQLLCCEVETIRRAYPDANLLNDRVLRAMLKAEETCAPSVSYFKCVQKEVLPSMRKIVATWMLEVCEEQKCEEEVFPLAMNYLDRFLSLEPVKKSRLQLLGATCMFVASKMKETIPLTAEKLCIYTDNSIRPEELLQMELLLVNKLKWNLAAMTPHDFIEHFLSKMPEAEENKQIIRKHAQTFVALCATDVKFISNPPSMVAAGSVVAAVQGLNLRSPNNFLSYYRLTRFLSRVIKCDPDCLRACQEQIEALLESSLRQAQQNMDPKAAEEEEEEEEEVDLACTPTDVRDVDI

Where [5] appears, read: x = IC50 25-250 nM, read-out: CDK2/CCNE IC50 (25-250 nM).
The mark [6] stands for this setting: x = IC50 >250 nM, read-out: CDK1/CCNB IC50 (>250 nM column).
[7] abbreviates: x = IC50 >250 nM, read-out: CDK4/CCND IC50 (>250 nM column).
Where [8] appears, read: x = IC50 >250 nM, read-out: CDK6/CCND IC50 (>250 nM column).
Setting [9] is: x = IC50 <25 nM, read-out: CDK2/CCNE IC50 (<25 nM).
[10] abbreviates: x = IC50 25-250 nM, read-out: CDK1/CCNB IC50 (25-250 nM).
The mark [11] stands for this setting: x = IC50 25-250 nM, read-out: CDK4/CCND IC50 (25-250 nM).
The mark [12] stands for this setting: x = IC50 25-250 nM, read-out: CDK6/CCND IC50 (25-250 nM).

Chain of CDK4/CCND3 (P11802 whole entry): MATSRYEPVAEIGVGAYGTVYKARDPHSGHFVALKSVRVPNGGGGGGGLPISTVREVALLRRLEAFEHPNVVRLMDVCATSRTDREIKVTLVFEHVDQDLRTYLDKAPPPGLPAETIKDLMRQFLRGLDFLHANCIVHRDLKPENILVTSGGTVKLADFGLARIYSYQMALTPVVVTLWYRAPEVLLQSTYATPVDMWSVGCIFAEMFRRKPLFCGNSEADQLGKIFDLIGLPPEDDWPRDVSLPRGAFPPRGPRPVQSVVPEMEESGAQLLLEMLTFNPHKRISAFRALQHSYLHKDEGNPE
Chain of CDK4/CCND3 (P30281 whole entry partner): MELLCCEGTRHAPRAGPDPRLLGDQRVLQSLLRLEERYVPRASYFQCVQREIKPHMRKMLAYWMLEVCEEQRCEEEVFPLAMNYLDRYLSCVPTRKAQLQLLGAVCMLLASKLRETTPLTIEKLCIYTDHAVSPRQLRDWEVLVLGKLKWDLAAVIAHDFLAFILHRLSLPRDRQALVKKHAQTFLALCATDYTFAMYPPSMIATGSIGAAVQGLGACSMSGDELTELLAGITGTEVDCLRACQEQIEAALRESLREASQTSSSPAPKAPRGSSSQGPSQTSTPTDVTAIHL

On to `CS(=O)(=O)c1ccc(Nc2cc3c(-c4ccc5nn(CCO)cc5c4)nccc3cn2)cc1` [Ex 639, 2-(5-(7-((4-(methylsulfonyl)phenyl)amino)-2,6-naphthyridin-1-yl)-2H-indazol-2-yl)ethan-1-ol], for which the IC50 in experiment [1] (setting [5]) is 0.025 to 0.25 µM; in experiment [2] (setting [6]), over 0.25 µM; in experiment [3] (setting [7]), over 0.25 µM; in experiment [4] (setting [8]), over 0.25 µM.

For `CNC(=O)Cn1ncc2c(C)c(-c3nccc4cnc(Nc5ccc(S(C)(=O)=O)cc5)cc34)ccc21` [Ex 640, N-methyl-2-(4-methyl-5-(7-((4-(methylsulfonyl)phenyl)amino)-2,6-naphthyridin-1-yl)-1H-indazol-1-yl)acetamide], the IC50 in experiment [1] (setting [9]) is under 0.025 µM; in experiment [2] (setting [10]) it was 0.025 to 0.25 µM; in experiment [3] (setting [11]) it was 0.025 to 0.25 µM; in experiment [4] (setting [12]), 0.025 to 0.25 µM.

For `Cc1c(C#N)ccc(C#Cc2nccc3cnc(Nc4ccc(S(C)(=O)=O)cc4)cc23)c1C` [Ex 643, 2,3-dimethyl-4-((7-((4-(methylsulfonyl)phenyl)amino)-2,6-naphthyridin-1-yl)ethynyl)benzonitrile], the IC50 in experiment [1] (setting [5]) is 0.025 to 0.25 µM; in experiment [2] (setting [6]) it was over 0.25 µM; in experiment [3] (setting [7]), over 0.25 µM; in experiment [4] (setting [8]) it was over 0.25 µM.

`CN1Cc2cc(-c3nccc4cnc(Nc5ccc(S(C)(=O)=O)cc5)cc34)ccc2CC1=O` [Ex 644, 2-methyl-7-(7-((4-(methylsulfonyl)phenyl)amino)-2,6-naphthyridin-1-yl)-1,4-dihydroisoquinolin-3(2H)-one]: the IC50 in experiment [1] (setting [5]) is 0.025 to 0.25 µM; in experiment [2] (setting [6]) it was over 0.25 µM; in experiment [3] (setting [7]), over 0.25 µM; in experiment [4] (setting [8]), over 0.25 µM.

With `CS(=O)(=O)c1ccc(Nc2cc3c(C#Cc4ccc5[nH]ncc5c4)nccc3cn2)cc1` [Ex 645, 5-((1H-indazol-5-yl)ethynyl)-N-(4-(methylsulfonyl)phenyl)-2,6-naphthyridin-3-amine], the IC50 in experiment [1] (setting [5]) is 0.025 to 0.25 µM; in experiment [2] (setting [6]), over 0.25 µM; in experiment [3] (setting [7]), over 0.25 µM; in experiment [4] (setting [8]) it was over 0.25 µM.

Regarding `COc1ccc(C#Cc2nccc3cnc(Nc4ccc(S(C)(=O)=O)cc4)cc23)cn1` [Ex 646, 5-((6-methoxypyridin-3-yl)ethynyl)-N-(4-(methylsulfonyl)phenyl)-2,6-naphthyridin-3-amine], the IC50 in experiment [1] (setting [5]) is 0.025 to 0.25 µM; in experiment [2] (setting [6]), over 0.25 µM; in experiment [3] (setting [7]), over 0.25 µM; in experiment [4] (setting [8]), over 0.25 µM.

Consider `CS(=O)(=O)c1ccc(Nc2cc3c(C#Cc4ccc(C#N)cc4C(F)(F)F)nccc3cn2)cc1` [Ex 647, 4-((7-((4-(methylsulfonyl)phenyl)amino)-2,6-naphthyridin-1-yl)ethynyl)-3-(trifluoromethyl)benzonitrile], for which the IC50 is under 0.025 µM in experiment [1] (setting [9]), over 0.25 µM in experiment [2] (setting [6]), over 0.25 µM in experiment [3] (setting [7]) and over 0.25 µM in experiment [4] (setting [8]).

With `CS(=O)(=O)c1ccc(Nc2cc3c(C#Cc4ccc5nc[nH]c5c4)nccc3cn2)cc1` [Ex 648, 5-((1H-benzo[d]imidazol-6-yl)ethynyl)-N-(4-(methylsulfonyl)phenyl)-2,6-naphthyridin-3-amine], the IC50 in experiment [1] (setting [9]) is under 0.025 µM; in experiment [2] (setting [6]), over 0.25 µM; in experiment [3] (setting [7]) it was over 0.25 µM; in experiment [4] (setting [8]), over 0.25 µM.

Consider `CS(=O)(=O)c1ccc(Nc2cc3c(-c4ccc5c(c4)CNC(=O)C5)nccc3cn2)cc1` [Ex 649, 7-(7-((4-(methylsulfonyl)phenyl)amino)-2,6-naphthyridin-1-yl)-1,4-dihydroisoquinolin-3(2H)-one], for which the IC50 in experiment [1] (setting [5]) is 0.025 to 0.25 µM; in experiment [2] (setting [6]), over 0.25 µM; in experiment [3] (setting [7]) it was over 0.25 µM; in experiment [4] (setting [8]), over 0.25 µM.

On to `CS(=O)(=O)c1ccc(Nc2cc3c(C#Cc4ccc(C#N)c(F)c4)nccc3cn2)cc1` [Ex 650, 2-fluoro-4-((7-((4-(methylsulfonyl)phenyl)amino)-2,6-naphthyridin-1-yl)ethynyl)benzonitrile], for which the IC50 in experiment [1] (setting [5]) is 0.025 to 0.25 µM; in experiment [2] (setting [6]), over 0.25 µM; in experiment [3] (setting [7]), over 0.25 µM; in experiment [4] (setting [8]), over 0.25 µM.

Take `CS(=O)(=O)c1ccc(Nc2cc3c(C#Cc4ccc(C#N)c(F)c4F)nccc3cn2)cc1` [Ex 651, 2,3-difluoro-4-((7-((4-(methylsulfonyl)phenyl)amino)-2,6-naphthyridin-1-yl)ethynyl)benzonitrile]: the IC50 in experiment [1] (setting [5]) is 0.025 to 0.25 µM; in experiment [2] (setting [6]), over 0.25 µM; in experiment [3] (setting [7]) it was over 0.25 µM; in experiment [4] (setting [8]), over 0.25 µM.

As to `CS(=O)(=O)c1ccc(Nc2cc3c(C#Cc4ccc(CCO)cc4)nccc3cn2)cc1` [Ex 652, 2-(4-((7-((4-(methylsulfonyl)phenyl)amino)-2,6-naphthyridin-1-yl)ethynyl)phenyl)ethan-1-ol], the IC50 in experiment [1] (setting [9]) was under 0.025 µM; in experiment [2] (setting [6]) it was over 0.25 µM; in experiment [3] (setting [7]), over 0.25 µM; in experiment [4] (setting [8]) it was over 0.25 µM.

For `COC(=O)N1CCC(C#Cc2nccc3cnc(Nc4ccc(S(C)(=O)=O)cc4)cc23)CC1` [Ex 653, methyl 4-((7-((4-(methylsulfonyl)phenyl)amino)-2,6-naphthyridin-1-yl)ethynyl)piperidine-1-carboxylate], the IC50 was 0.025 to 0.25 µM in experiment [1] (setting [5]), over 0.25 µM in experiment [2] (setting [6]), over 0.25 µM in experiment [3] (setting [7]) and over 0.25 µM in experiment [4] (setting [8]).

`Cn1cc2c(Cl)c(-c3nccc4cnc(Nc5ccc(S(C)(=O)=O)cc5)cc34)ccc2n1` [Ex 655, 5-(4-chloro-2-methyl-2H-indazol-5-yl)-N-(4-(methylsulfonyl)phenyl)-2,6-naphthyridin-3-amine]: the IC50 in experiment [1] (setting [9]) was under 0.025 µM; in experiment [2] (setting [6]), over 0.25 µM; in experiment [3] (setting [7]), over 0.25 µM; in experiment [4] (setting [8]), over 0.25 µM.

As to `Cc1c(-c2nccc3cnc(Nc4ccc(S(C)(=O)=O)cc4)cc23)ccc2c1cnn2CC#N` [Ex 656, 2-(4-methyl-5-(7-((4-(methylsulfonyl)phenyl)amino)-2,6-naphthyridin-1-yl)-1H-indazol-1-yl)acetonitrile], the IC50 in experiment [1] (setting [5]) was 0.025 to 0.25 µM; in experiment [2] (setting [6]), over 0.25 µM; in experiment [3] (setting [7]), over 0.25 µM; in experiment [4] (setting [8]) it was over 0.25 µM.

On to `Cc1c(-c2nccc3cnc(Nc4ccc(S(C)(=O)=O)cc4)cc23)ccc2c1ccn2CCO` [Ex 657, 2-(4-methyl-5-(7-((4-(methylsulfonyl)phenyl)amino)-2,6-naphthyridin-1-yl)-1H-indol-1-yl)ethan-1-ol], for which the IC50 was under 0.025 µM in experiment [1] (setting [9]), 0.025 to 0.25 µM in experiment [2] (setting [10]), 0.025 to 0.25 µM in experiment [3] (setting [11]) and 0.025 to 0.25 µM in experiment [4] (setting [12]).

For the molecule `Cc1c(-c2nccc3cnc(Nc4ccc(S(C)(=O)=O)cc4)cc23)ccc2cn[nH]c12` [Ex 658, 5-(7-methyl-1H-indazol-6-yl)-N-(4-(methylsulfonyl)phenyl)-2,6-naphthyridin-3-amine], the IC50 was under 0.025 µM in experiment [1] (setting [9]), 0.025 to 0.25 µM in experiment [2] (setting [10]), 0.025 to 0.25 µM in experiment [3] (setting [11]) and 0.025 to 0.25 µM in experiment [4] (setting [12]).

As for `COc1cc(C#Cc2nccc3cnc(Nc4ccc(S(C)(=O)=O)cc4)cc23)ccn1` [Ex 660, 5-((2-methoxypyridin-4-yl)ethynyl)-N-(4-(methylsulfonyl)phenyl)-2,6-naphthyridin-3-amine], the IC50 in experiment [1] (setting [5]) is 0.025 to 0.25 µM; in experiment [2] (setting [6]), over 0.25 µM; in experiment [3] (setting [7]), over 0.25 µM; in experiment [4] (setting [8]), over 0.25 µM.

Consider `Cc1c(-c2nccc3cnc(Nc4ccc(S(=O)(=O)C5CC5)cc4)cc23)ccc2c1cnn2CCO` [Ex 662, 2-(5-(7-((4-(cyclopropylsulfonyl)phenyl)amino)-2,6-naphthyridin-1-yl)-4-methyl-1H-indazol-1-yl)ethan-1-ol], for which the IC50 in experiment [1] (setting [9]) is under 0.025 µM; in experiment [2] (setting [10]) it was 0.025 to 0.25 µM; in experiment [3] (setting [11]), 0.025 to 0.25 µM; in experiment [4] (setting [12]), 0.025 to 0.25 µM.

For the molecule `CS(=O)(=O)c1ccc(Nc2cc3c(C#Cc4cn[nH]c4)nccc3cn2)cc1` [Ex 664, 5-((1H-pyrazol-4-yl)ethynyl)-N-(4-(methylsulfonyl)phenyl)-2,6-naphthyridin-3-amine], the IC50 in experiment [1] (setting [9]) was under 0.025 µM; in experiment [2] (setting [6]) it was over 0.25 µM; in experiment [3] (setting [7]) it was over 0.25 µM; in experiment [4] (setting [8]), over 0.25 µM.
